What was measured:
[1] = 4-week dog study, ALT and AST; type: in vivo
From the text: The maximal increase was 6-fold and ≤2-fold for ALT and AST respectively (relative to pre-dose values), and occurred during week 2 of the study. Generally, there was no further increase in transaminase levels despite continued dosing over the 4-weeks indicating a level of adaptation to these pharmacologically mediated effects.

[2] = Dog cross-over study: plasma miR-122 levels (Taqman, standard curve method); type: in vivo, Beagle dogs
Protocol: Plasma miR-122 levels, a liver enriched microRNA used as biomarker of liver injury (Starkey Lewis P J et al., Clin Pharmacol Ther, 2012, 291-293), were determined. miR-122 is considered as a liver-specific marker.
Small RNA was extracted from 50 μl of plasma by using the miRNeasy/MinElute kit and following the instructions of the manufacturer (Qiagen). Elution of small RNA was realized in 14 μl of nucleic acid-free H2O.
3.2 μl of eluted small RNA was reverse transcribed into cDNA by using the Megaplex RT primer human pool A and B and the Taqman MicorRNA Reverse Transcription kit (Applied Biosystems/Life Technologies, reference 4366596) and following the instructions of the manufacturer.
2.5 μl of cDNA was preamplified by using the Megaplex Preamp primer human pool A and B (Applied Biosystems/Life Technologies, reference 4399201 and 4399233) and the Taqman PreAmp Master mix (Applied Biosystems/Life Technologies, reference 4391128) and following the instructions of the manufacturer.
microRNA miR-122 was amplified from preamplified cDNA by using a commercially available validated Taqman assay (reference 002245) diluted in the Taqman MasterMixII (Applied Biosystems/Life Technologies) and following the instructions of the manufacturer.
The relative quantification of plasmatic microRNA levels was performed using the standard curve method to generate expression values as number of molecules.
Statistical significance of mRNA measurements was assessed using the two-sample unequal variance, two-tailed distribution (hetero-scedastic Student's t-test, Excel). Coefficients of variation with a P value <0.05 were considered to be statistically significant.

[3] = system: advanced HCC; conditions: patients with advanced HCC; cited from earlier work
[4] = system: 456 kinases; conditions: cited from earlier work
[5] = Dog cross-over study of Compound A with or without cholestyramine: serum ALT activity; type: in vivo, Beagle dogs; conditions: Cpd A 5 mg/kg/day
Protocol: Male Beagle dogs were obtained from Marshall BioResources (North Rose, N.Y.). For the study, all animals were nave to treatment. All animals used in the study were healthy and suitable for use. The dose volume for Cpd A and its vehicle was 5 mL/kg. For CHO, the dosing aliquot was dispersed in 75 mL total animal drinking water.
For the study, a dosing paradigm was followed with initial loading dose of either vehicle or CHO on the last day of pretest (day −1), and dosing of either vehicle or CHO on days 1-7.
N-(5-cyano-4-((2-methoxyethyl)amino)pyridin-2-yl)-7-formyl-6-((4-methyl-2-oxopiperazin-1-yl)methyl)-3,4-dihydro-1,8-naphthyridine-1(2H)-carboxamide dosing was initiated on day 8, with the second dosing event of each day for either vehicle or CHO. Food was presented to the animals after the second daily dosing event. Animals were not dosed on day 15. Dosing was restarted on day 24 and the dose groups crossed over on day 38-44, with the last day of dosing on day 44.
Clinical observations, twice-weekly body weights, and daily food consumption determinations were performed.
Fecal samples were collected for bile acid (BA) analysis once during pretest and on days 7, 10, 14, 17, 24, 28, 35, 42, and 49.
Plasma was collected from all animals for bile acid profiling during the study, concurrent with clinical pathology and/or toxicokinetic sampling as follows: at approximately 3 hours postdose (post vehicle, CHO or Cpd A, as appropriate) on days 1, 3, 7, 8, 11, 14, 15, 18, 21, 23, 25, 28, 31, 35, 38, 42, 45, 49, and 52. On days 8, 14, 25, and 39 only, samples were collected at predose and approximately 0.5, 1, 3, 7, and 24 hours postdose (post Cpd A dosing). In addition, on day 44, bile acid biomarker samples were collected at 3, 7, and 24 hours postdose (concurrent with the last toxicokinetic blood collection).

[6] = relative to pre-dose values, during week 2 of 4-week dog study

Structure (SMILES): COCCNc1cc(NC(=O)N2CCCc3cc(CN4CCN(C)CC4=O)c(C=O)nc32)ncc1C#N [Compound A, N-(5-cyano-4-((2-methoxyethyl)amino)pyridin-2-yl)-7-formyl-6-((4-methyl-2-oxopiperazin-1-yl)methyl)-3,4-dihydro-1,8-naphthyridine-1(2H)-carboxamide]
- recovery of ALT/AST increases evident ([1]; day following cessation of Compound A administration): ≤ 8 days
- maximal increase in ALT [1, 6]: 6 fold
- maximal increase in AST [1, 6]: ≤ 2 fold
- increase in miR-122 levels, maximum average ([2]; recovery period study day 15-23, at day 21, compared with study day 1-7): ≤ 5.4 fold
- increase in miR-122 levels, peak ([2]; recovery study days 45-52, Group 1 animal 1001, day 49): ≤ 22.2 fold
- increase in miR-122 levels, peak ([2]; recovery study days 45-52, Group 1 animal 1003, day 49): ≤ 47.9 fold
- increase in miR-122 levels, peak ([2]; recovery study days 45-52, Group 1 animal 1005, day 49): ≤ 16.4 fold
- increase in miR-122 levels, peak ([2]; recovery study days 45-52, Group 1 animal 1006, day 49): ≤ 40.1 fold
- change in miR122 compared to respective controls, overall ([2]; some animals): minimal to moderate increases
- increase in miR-122 levels, maximum average ([2]; study day 8-14, at day 14, compared with study day 1-7): ≤ 2.5 fold
- increase in miR-122 levels, maximum ([2]; study days 25-38, animal 2003, at day 38): ≤ 151 fold
- increase in miR-122 levels, maximum average ([2]; study days 25-38, animal 2006, at day 31): ≤ 63 fold
- increase in miR-122 levels, average ([2]; study days 39-42, following the second cross-over): ≤ 7.8 fold
- clinical activity [3]: promising clinical activity
- targets found in kinome wide scan [4]: FGFR4 was the only target
- increase in serum ALT activity ([5]; compared with pretest, first dosing period (from day 8)): 3.5 fold
- change in serum ALT activity, in general ([5]; dogs): minimal to moderate increases
- increase in serum ALT activity ([5]; following the first cross-over): 6 fold
- increase in serum ALT activity ([5]; following the second cross-over): 3.5 fold

From patent US11229643B2, “Combinations of FGFR4 inhibitors and bile acid sequestrants” (NOVARTIS AG, priority 2016, dated 2022)
